Data published in the supplement of paper PMC4628005.

Experiments:
Conditions in all cases: drug exposure time: 96 h
Bortezomib = compound: CC(C)C[C@H](NC(=O)[C@H](Cc1ccccc1)NC(=O)c1cnccn1)B(O)O [Bortezomib]
Description: (§1)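 Same SRB 96 h IC50 screen on breast cancer cell lines (RPMI 1640 + 10% FBS, collagen I-coated 96-well plates, triplicates, 12 dilutions), for drugs with a different dose range: Bortezomib up to 2e-5 M; Sirolimus and 17-AAG up to 2e-6 M. Sirolimus values at the 2e-6 M top dose are censored.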

Sirolimus = compound: CO[C@H]1C[C@@H]2CC[C@@H](C)[C@@](O)(O2)C(=O)C(=O)N2CCCC[C@H]2C(=O)O[C@H]([C@H](C)C[C@@H]2CC[C@@H](O)[C@H](OC)C2)CC(=O)[C@H](C)/C=C(\C)[C@@H](O)[C@@H](OC)C(=O)[C@H](C)C[C@H](C)/C=C/C=C/C=C/1C [Sirolimus]
Description: as §1

17-AAG = compound: C=CCNC1=C2C[C@@H](C)C[C@H](OC)[C@H](O)[C@@H](C)/C=C(\C)[C@H](OC(N)=O)[C@@H](OC)/C=C\C=C(/C)C(=O)NC(=CC1=O)C2=O [17-AAG]
Description: as §1

Nutlin-3 = compound: COc1ccc(C2=N[C@@H](c3ccc(Cl)cc3)[C@@H](c3ccc(Cl)cc3)N2C(=O)N2CCNC(=O)C2)c(OC(C)C)c1 [Nutlin-3]
Description: (§2)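 Breast cancer cell lines were grown in RPMI 1640 with 10% FBS on collagen I-coated 96-well plates and treated for 96 h (from 24 h after seeding) with 12 dilutions per drug, in triplicate. Growth was read by sulforhodamine B total-protein staining (absorbance 570 nm) relative to diluent control, and IC50 was calculated. The top dose was 1e-5 M for most drugs; Bortezomib went to 2e-5 M and Sirolimus and 17-AAG to 2e-6 M[…].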

Decitabine = compound: Nc1ncn([C@H]2C[C@H](O)[C@@H](CO)O2)c(=O)n1 [Decitabine]
Description: as §2

Methotrexate = compound: CN(Cc1cnc2nc(N)nc(N)c2n1)c1ccc(C(=O)N[C@@H](CCC(=O)O)C(=O)O)cc1 [Methotrexate]
Description: as §2

Docetaxel = compound: CC(=O)O[C@@]12CO[C@@H]1C[C@H](O)[C@@]1(C)C(=O)[C@H](O)C3=C(C)[C@@H](OC(=O)[C@H](O)[C@@H](NC(=O)OC(C)(C)C)c4ccccc4)C[C@@](O)([C@@H](OC(=O)c4ccccc4)[C@H]21)C3(C)C [Docetaxel]
Description: as §2

Quisinostat = compound: Cn1cc(CNCC2CCN(c3ncc(C(=O)NO)cn3)CC2)c2ccccc21 [Quisinostat]
Description: as §2

Sunitinib = compound: CCN(CC)CCNC(=O)c1c(C)[nH]c(/C=C2\C(=O)Nc3ccc(F)cc32)c1C [Sunitinib]
Description: as §2

Tipifarnib = compound: Cn1cncc1[C@@](N)(c1ccc(Cl)cc1)c1ccc2c(c1)c(-c1cccc(Cl)c1)cc(=O)n2C [Tipifarnib]
Description: as §2

Doxorubicin = compound: COc1cccc2c1C(=O)c1c(O)c3c(c(O)c1C2=O)C[C@@](O)(C(=O)CO)C[C@@H]3O[C@H]1C[C@H](N)[C@H](O)[C@H](C)O1 [Doxorubicin]
Description: as §2

5-Fluorouracil = compound: O=c1[nH]cc(F)c(=O)[nH]1 [5-Fluorouracil]
Description: as §2

Belinostat = compound: O=C(/C=C/c1cccc(S(=O)(=O)Nc2ccccc2)c1)NO [Belinostat]
Description: as §2

Vorinostat = compound: O=C(CCCCCCC(=O)Nc1ccccc1)NO [Vorinostat]
Description: as §2

ARQ197 = compound: O=C1NC(=O)[C@@H](c2cn3c4c(cccc24)CCC3)[C@@H]1c1c[nH]c2ccccc12 [ARQ197]
Description: as §2

Lapatinib = compound: CS(=O)(=O)CCNCc1ccc(-c2ccc3ncnc(Nc4ccc(OCc5cccc(F)c5)c(Cl)c4)c3c2)o1 [Lapatinib]
Description: as §2

Azacitidine = compound: Nc1ncn([C@@H]2O[C@H](CO)[C@@H](O)[C@H]2O)c(=O)n1 [Azacitidine]
Description: as §2

Dasatinib = compound: Cc1nc(Nc2ncc(C(=O)Nc3c(C)cccc3Cl)s2)cc(N2CCN(CCO)CC2)n1 [Dasatinib]
Description: as §2

Gefitinib = compound: COc1cc2ncnc(Nc3ccc(F)c(Cl)c3)c2cc1OCCCN1CCOCC1 [Gefitinib]
Description: as §2

Brivanib = compound: Cc1cc2c(F)c(Oc3ncnn4cc(OC[C@@H](C)O)c(C)c34)ccc2[nH]1 [Brivanib]
Description: as §2

Vandetanib = compound: COc1cc2/c(=N/c3ccc(Br)cc3F)nc[nH]c2cc1OCC1CCN(C)CC1 [Vandetanib]
Description: as §2

Cisplatin = compound: N.N.[Cl][Pt][Cl] [Cisplatin]
Description: as §2

Tamoxifen = compound: CC/C(=C(\c1ccccc1)c1ccc(OCCN(C)C)cc1)c1ccccc1 [Tamoxifen]
Description: as §2

Serdemetan = compound: c1ccc2c(CCNc3ccc(Nc4ccncc4)cc3)c[nH]c2c1 [Serdemetan]
Description: as §2

Erlotinib = compound: C#Cc1cccc(Nc2ncnc3cc(OCCOC)c(OCCOC)cc23)c1 [Erlotinib]
Description: as §2

MI-219 = compound: CC(C)(C)C[C@H]1N[C@@H](C(=O)NCC[C@H](O)CO)[C@H](c2cccc(Cl)c2)[C@@]12C(=O)Nc1cc(Cl)c(F)cc12 [MI-219]
Description: as §2

Mitoxantrone = compound: O=C1c2c(O)ccc(O)c2C(=O)c2c(NCCNCCO)ccc(NCCNCCO)c21 [Mitoxantrone]
Description: as §2

Sorafenib = compound: CNC(=O)c1cc(Oc2ccc(NC(=O)Nc3ccc(Cl)c(C(F)(F)F)c3)cc2)ccn1 [Sorafenib]
Description: as §2

Panobinostat = compound: Cc1[nH]c2ccccc2c1CCNCc1ccc(/C=C/C(=O)NO)cc1 [Panobinostat]
Description: as §2

Paclitaxel = compound: CC(=O)O[C@H]1C(=O)[C@@]2(C)[C@H]([C@H](OC(=O)c3ccccc3)[C@]3(O)C[C@H](OC(=O)[C@H](O)[C@@H](NC(=O)c4ccccc4)c4ccccc4)C(C)=C1C3(C)C)[C@]1(OC(C)=O)CO[C@@H]1C[C@@H]2O [Paclitaxel]
Description: as §2

Row | Test System | IC50 (SRB growth assay) (Bortezomib) [nM] | IC50 (SRB growth assay) (Sirolimus) [nM] | IC50 (SRB growth assay) (17-AAG) [nM] | IC50 (SRB growth assay) (Nutlin-3) [nM] | IC50 (SRB growth assay) (Decitabine) [nM] | IC50 (SRB growth assay) (Methotrexate) [nM] | IC50 (SRB growth assay) (Docetaxel) [nM] | IC50 (SRB growth assay) (Quisinostat) [nM] | IC50 (SRB growth assay) (Sunitinib) [nM] | IC50 (SRB growth assay) (Tipifarnib) [nM] | IC50 (SRB growth assay) (Doxorubicin) [nM] | IC50 (SRB growth assay) (5-Fluorouracil) [nM] | IC50 (SRB growth assay) (Belinostat) [nM] | IC50 (SRB growth assay) (Vorinostat) [nM] | IC50 (SRB growth assay) (ARQ197) [nM] | IC50 (SRB growth assay) (Lapatinib) [nM] | IC50 (SRB growth assay) (Azacitidine) [nM] | IC50 (SRB growth assay) (Dasatinib) [nM] | IC50 (SRB growth assay) (Gefitinib) [nM] | IC50 (SRB growth assay) (Brivanib) [nM] | IC50 (SRB growth assay) (Vandetanib) [nM] | IC50 (SRB growth assay) (Cisplatin) [nM] | IC50 (SRB growth assay) (Tamoxifen) [nM] | IC50 (SRB growth assay) (Serdemetan) [nM] | IC50 (SRB growth assay) (Erlotinib) [nM] | IC50 (SRB growth assay) (MI-219) [nM] | IC50 (SRB growth assay) (Mitoxantrone) [nM] | IC50 (SRB growth assay) (Sorafenib) [nM] | IC50 (SRB growth assay) (Panobinostat) [nM] | IC50 (SRB growth assay) (Paclitaxel) [nM]
1 | HCC 1143 | 4.31 | 0.62 | 56.6 | > 10000 | 148 | 24.7 | 0.306 | 4.84 | 4730 | 749 | 16.5 | 1980 | 350 | 857 | 481 | 2250 | 2070 | 5110 | 1040 | > 10000 | 1830 | > 10000 | 4990 | 921 | 1080 | > 10000 | 3.93 | 6060 | 11 | 1.52
2 | MDA-MB 435 S | 12.3 | > 2000 | 164 | > 10000 | > 10000 | 12.4 | 1.32 | 25.2 | 5440 | > 10000 | 54.8 | 2860 | 2010 | 2630 | 705 | > 10000 | 3760 | > 10000 | > 10000 | > 10000 | 6950 | > 10000 | > 10000 | 2050 | > 10000 | > 10000 | 35.8 | 6530 | 44.5 | 2.15
3 | SKBR 7 | 24.6 | 0.886 | 74.1 | 7530 | 2510 | 11.1 | 0.338 | 7.17 | 5350 |  |  | 1580 | 470 | 918 |  | 2510 | > 10000 | > 10000 | > 10000 | > 10000 | 7760 |  | 8320 | 798 | > 10000 | 3200 | 3.02 | 2400 | 15.9 | 1.07
4 | SUM 229 PE | 5.42 | 0.201 | 19.8 | > 10000 | 27.2 | 25.7 | 0.539 | 10.6 | 3320 |  |  | 2960 | 1000 | 1820 |  | 27.2 | > 10000 | 387 | 7560 | > 10000 | 1870 |  | 4170 | 292 | 7630 | > 10000 | 6.3 | 5640 | 25.1 | 1.46
5 | BT 474 | 5.49 | 0.119 | 19.5 | > 10000 | > 10000 | > 10000 | 0.891 | 1.85 | 5780 |  |  | > 10000 | 191 | 376 |  | > 10000 | > 10000 | 611 | 731 | > 10000 | 2770 |  | 4130 | 2280 | 1970 | > 10000 | 23.3 | 3500 | 3.31 | 2.18
6 | MDA-MB 231 | 4.43 | 4.75 | 683 | > 10000 | 65.7 | 2.1 | 0.535 | 16.1 | 2520 |  |  | 2580 | 410 | 1320 |  | 65.7 | > 10000 | 67.6 | > 10000 | 6480 | 4800 |  | 9790 | 474 | > 10000 | > 10000 | 2.65 | 4270 | 15.5 | 1.49
7 | BT 549 | 3.97 | 0.597 | 58.4 | > 10000 | 256 | 22.4 | 0.598 | 12.4 | 3290 |  |  | 3720 | 436 | 764 |  | 256 | > 10000 | 565 | > 10000 | 6300 | 3410 |  | 7410 | 1260 | 6100 | > 10000 | 1.88 | 6040 | 11.1 | 1.44
